From patent US7235533B2, “Compounds and their uses” (Rodaris Pharmaceuticals Limited, priority 2000, dated 2007) come the findings set out here.

For one experiment, the target named is PKA (Homo sapiens, UniProt P17612). As to the kind of experiment: PKA inhibition assay. The experiment is classed as biochemical. The source says:
(§1) Methods for obtaining A-type and P-type mediators are set out in Caro et al, 1997, and in WO98/11116 and WO98/11117. Protocols for determining characteristic IPG biological activities such as PDH activation, PKA inhibition, acetylCoA activation, fructose-1,6-bis-phosphatase activity and lipogenesis are well known in the art or provided in the experimental section below.
(§2) The compounds of the invention can be tested for one or more the characteristic IPG-P and/or IPG-A activities mentioned above to determine whether they will be suitable for use a IPG mimetics or antagonists. Preferred assays measure the effect of the compounds on PDH phosphatase, PKA or lipogenesis. Protocols for these assays are provided in Caro et al^[14].

Another experiment addresses T1, PDH phosphatase (Homo sapiens, UniProt Q9P0J1).
T1 sequence (Q9P0J1 72-537): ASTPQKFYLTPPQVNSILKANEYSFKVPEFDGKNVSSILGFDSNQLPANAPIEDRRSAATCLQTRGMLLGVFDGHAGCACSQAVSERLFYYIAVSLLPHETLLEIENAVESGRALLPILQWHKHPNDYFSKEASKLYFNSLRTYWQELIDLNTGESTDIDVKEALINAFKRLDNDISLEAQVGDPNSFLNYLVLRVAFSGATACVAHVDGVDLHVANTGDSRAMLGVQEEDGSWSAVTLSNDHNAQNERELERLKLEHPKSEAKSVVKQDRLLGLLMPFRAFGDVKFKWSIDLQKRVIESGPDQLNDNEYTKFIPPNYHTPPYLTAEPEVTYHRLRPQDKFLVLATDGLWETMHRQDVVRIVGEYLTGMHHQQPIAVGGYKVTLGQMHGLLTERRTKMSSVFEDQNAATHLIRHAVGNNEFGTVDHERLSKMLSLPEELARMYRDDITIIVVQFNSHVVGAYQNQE
Description: PDH activation assay. The experiment is classed as biochemical. Conditions: 100 μM compound.
Text: as §1, §2

“6-O-(2-Ammonio-2-deoxy-β-D-glucopyranosyl)-D-chiro-inositol-1-phosphate [RGL1019]”: the PKA inhibition at PKA (0.1 μM compound) is recorded as 32%; at PKA (10 μM compound), 31%.
`COC1C(O)C(O)C(OC2OC(CO)C(O)C(O)C2N)C(O)C1O` [RGL1015, O-(2-amino-2-deoxy-D-glucopyranosyl)-β(1,6)-3-O-methyl-chiro-inositol]: the PKA inhibition was determined as 14% at PKA (0.1 μM compound), 15% at PKA (1.0 μM compound) and 12% at PKA (10 μM compound). This compound also displayed a PDH activation on PDH phosphatase of 38%.
Take `NC1C(OC2C(O)C(O)C(O)C(O)C2O)OC(CO)C(O)C1O` [RGL1018, 6-O-(2-Amino-2-deoxy-β-D-glucopyranosyl)-D-chiro-inositol]: on PKA (0.1 μM compound), the PKA inhibition came out at 19%.
Compound `NC1C(OC2C(O)C(O)C(O)C(O)C2O)OC(COP(=O)(O)O)C(O)C1O` [RGL1023, 1′-D-6-O-(2′-amino-2′-deoxy-6′-phosphate-α-D-glucopyranosyl)-myo-inositol] displayed a PDH activation on PDH phosphatase of 14%.
In the case of `CO[C@H]1[C@H](O)[C@@H](O)[C@@H](O[C@H]2O[C@H](CO)[C@@H](O)[C@H](O)[C@H]2N)[C@H](O)[C@@H]1O` [RGL1024, O-(2-amino-2-deoxy-D-glucopyranosyl)-α(1,6)-D-3-O-methyl-chiro-inositol], the PKA inhibition at PKA (0.1 μM compound) is 17%; on PKA (1.0 μM compound), 34%; at PKA (10 μM compound) it was 2%. Besides, the PDH activation at PDH phosphatase is reported as 65%.
Regarding `N[C@H]1[C@@H](O[C@H]2[C@H](O)[C@H](O)[C@H](O)[C@@H](O)[C@@H]2O)O[C@H](CO)[C@@H](OP(=O)(O)O)[C@@H]1O` [RGL1027, 1′-D-6-O-(2′-amino-2′-deoxy-4′-phosphate-α-D-glucopyranosyl)-myo-inositol], the PKA inhibition is on record as 18% at PKA (0.1 μM compound) and 10% on PKA (10 μM compound). This compound also registered a PDH activation at PDH phosphatase of 132%.
On the same counts, the results for `N[C@H]1[C@@H](O[C@H]2[C@H](O)[C@H](O)[C@H](O)[C@@H](O)[C@@H]2O)O[C@H](CO)[C@@H](O)[C@@H]1OP(=O)(O)O` [RGL1029, 1′-D-6-O-(2′-amino-2′-deoxy-3′-phosphate-α-D-glucopyranosyl)-myo-inositol] are 59%, 33% and 361%.
In the case of “O-(2-amino-2deoxy-D-galactopyranosyl)-α(1,6)-D-3-O-methyl-chiro-inositol [RGL1025]”, the PKA inhibition at PKA (0.1 μM compound) was 48%; on PKA (1.0 μM compound) it was −13%. On PDH phosphatase, this compound yielded a PDH activation of 17%.
